The text below walks through data of ChEMBL document CHEMBL2150977, “Synthesis of highly water-soluble fibrate derivatives via BGLation” (Bioorg Med Chem Lett, 2012).

Data set [1] concerns Rattus norvegicus. Kind of data set: Toxicity in Sprague-Dawley rat assessed as body weight loss at […], po relative to vehicle-treated control. In kind it is organism-based. As to conditions: in vivo.
In data set [2] the test system is Rattus norvegicus. Kind of data set: Toxicity in Sprague-Dawley rat assessed as aberrant behaviour at […], po relative to vehicle-treated control. To be noted: in vivo. In kind it is organism-based.
In data set [3] the test system is Rattus norvegicus. Kind of data set: Antihyperlipidemic activity in Sprague-Dawley rat assessed as decrease in plasma triglyceride level at […], po administered QD for 8 days relative to vehicle-treated control. In kind it is functional, organism-based.
In data set [4] the test system is Rattus norvegicus. Kind of data set: Drug metabolism in Sprague-Dawley rat assessed as fenofibric acid level in plasma at 150 mg/kg, po after 4 hrs. The class given is ADME, organism-based. Details: dose 150 mg/kg, route oral. To be noted: in vivo.
A short description of data set [5]: Aqueous solubility of the compound. The class given is physicochemical. To be noted: water.
The test system of data set [6] is Rattus norvegicus. Kind of data set: Drug metabolism in Sprague-Dawley rat assessed as fenofibric acid level in plasma at 100 mg/kg, po after 4 hrs. The class given is ADME, organism-based. To be noted: in vivo. Also noted: dose 100 mg/kg, route oral.

Active and inactive are the calls of the source. The calls are words filed in the database; no cut-off is given here. Bounds are passed on as bounds.

Consider `CC(C)(Oc1ccc(C(=O)c2ccc(Cl)cc2)cc1)C(=O)OC(CO)CO`, for which the Activity entry with Rattus norvegicus [1] and in the data set with Rattus norvegicus [2] was “Non-toxic” in each case. In addition, the outcome in the data set with Rattus norvegicus [3] was Active.

As usually defined, the solubility is how much of the substance goes into solution per volume. Higher therefore signals much dissolved substance. For `CC(C)(Oc1ccc(C(=O)c2ccc(Cl)cc2)cc1)C(=O)OC(COC(CO)CO)COC(CO)CO`, the Activity entry in the data set on Rattus norvegicus [1] and in the data set on Rattus norvegicus [2] was “Non-toxic” in each case. In addition, in the data set with Rattus norvegicus [4], the Drug metabolism result is “Active”. This compound showed a solubility in data set [5] of more than 1000 µg/mL. The outcome in the data set on Rattus norvegicus [3] was Active.

`CC(C)(Oc1ccc(C(=O)c2ccc(Cl)cc2)cc1)C(=O)OCCO`: the Activity entry in the data set with Rattus norvegicus [1] and in the data set with Rattus norvegicus [2] was “Non-toxic” throughout. Further, the result with Rattus norvegicus [3] was Active.

For the compound `CC(C)(Oc1ccc(Cl)cc1)C(=O)OC(COC(CO)CO)COC(CO)CO`, the solubility in data set [5] is more than 1000 µg/mL.

In the case of `CC(C)OC(=O)C(C)(C)Oc1ccc(C(=O)c2ccc(Cl)cc2)cc1` [FENOFIBRATE], the Drug metabolism result with Rattus norvegicus [6] is “Active”. The outcome in the data set on Rattus norvegicus [3] was Active.

For `CC(C)(Oc1ccc(CCNC(=O)c2ccc(Cl)cc2)cc1)C(=O)OC(COC(CO)CO)COC(CO)CO`, the solubility in data set [5] was more than 1000 µg/mL.
